Experimental data: ChEMBL document CHEMBL5608163, “Structure modification of anoplin for fighting resistant bacteria” (Eur J Med Chem, 2024)
Converted amounts (≈) assume the structure as drawn. Blank lines part the entries; values can stand above or below the molecule they belong to. Bridge positions count the residues as written; N and C are the ends. Square brackets hold non-standard residues; d marks the D form. Peptide text beside a SMILES is read from it. I, II: the chains in the order shown. * marks the point of attachment. 2Nal = N[C@@H](Cc1ccc2ccccc2c1)C(=O)O; hLeu = CC(C)CC[C@H](N)C(=O)O; Decanoyl = CCCCCCCCCC(=O)*; Nva = CCC[C@H](N)C(=O)O; Hexanoyl = CCCCCC(=O)*; Butyryl = CCCC(=O)*

Tests used:
Erythrocyte = experiment: Hemolytic activity in human erythrocytes incubated for 1 hr by ELISA reader analysis; assay type: toxicity, cell-based
Escherichia coli [1] = experiment: Antimicrobial activity against Escherichia coli ATCC 25922 assessed as reduction in microbial growth measured after 24 hrs by CLSI based broth microdilution method; assay type: functional
Bacillus subtilis = experiment: Antibacterial activity against Bacillus subtilis ATCC 23857 assessed as reduction in bacterial cell growth incubated for 16 to 24 hrs by CLSI-protocol based Mueller-Hinton Broth micro-dilution method; assay type: functional; conditions: time 16-24 hrs
Klebsiella pneumoniae = experiment: Antibacterial activity against Klebsiella pneumoniae ATCC 700603 assessed as reduction in bacterial cell growth incubated for 16 to 24 hrs by CLSI-protocol based Mueller-Hinton Broth micro-dilution method; assay type: functional; conditions: time 16-24 hrs
Escherichia coli [2] = experiment: Antibacterial activity against Escherichia coli ATCC 25922 assessed as reduction in bacterial cell growth incubated for 16 to 24 hrs by CLSI-protocol based Mueller-Hinton Broth micro-dilution method; assay type: functional; conditions: time 16-24 hrs
Staphylococcus aureus = experiment: Antibacterial activity against Staphylococcus aureus ATCC 25923 assessed as reduction in bacterial cell growth incubated for 16 to 24 hrs by CLSI-protocol based Mueller-Hinton Broth micro-dilution method; assay type: functional; conditions: time 16-24 hrs
Pseudomonas aeruginosa = experiment: Antibacterial activity against Pseudomonas aeruginosa ATCC 27853 assessed as reduction in bacterial cell growth incubated for 16 to 24 hrs by CLSI-protocol based Mueller-Hinton Broth micro-dilution method; assay type: functional; conditions: time 16-24 hrs

MIC (Escherichia coli [1]): > 200 µM
SMILES: CCC[C@H](NC(=O)[C@H](CCC)NC(=O)[C@@H](NC(=O)[C@H](CCCCN)NC(=O)[C@@H](NC(=O)[C@H](CCCNC(=N)N)NC(=O)[C@H](CCCCN)NC(=O)[C@H](CCC)NC(=O)[C@H](CCC)NC(=O)CN)[C@@H](C)CC)[C@@H](C)O)C(N)=O (H-G[Nva][Nva]KRIKT[Nva][Nva]-NH2)
HC10 (Erythrocyte): > 500 µM

MIC (Escherichia coli [1]): > 200 µM
SMILES: CCC[C@H](NC(=O)[C@H](CCC)NC(=O)[C@@H](NC(=O)[C@H](CCCCN)NC(=O)[C@H](Cc1ccc2ccccc2c1)NC(=O)[C@H](CCCNC(=N)N)NC(=O)[C@H](CCCCN)NC(=O)[C@H](CCC)NC(=O)[C@H](CCC)NC(=O)CN)[C@@H](C)O)C(N)=O (H-G[Nva][Nva]KR[2Nal]KT[Nva][Nva]-NH2)
HC10 (Erythrocyte): > 500 µM

MIC (Escherichia coli [1]): 12.5 µM
SMILES: CC[C@H](C)[C@H](NC(=O)[C@H](CCCNC(=N)N)NC(=O)[C@H](CCCCN)NC(=O)[C@H](CCC(C)C)NC(=O)[C@H](CCC(C)C)NC(=O)CN)C(=O)N[C@@H](CCCCN)C(=O)N[C@H](C(=O)N[C@@H](CCC(C)C)C(=O)N[C@@H](CCC(C)C)C(N)=O)[C@@H](C)O (H-G[hLeu][hLeu]KRIKT[hLeu][hLeu]-NH2)
HC10 (Erythrocyte): 125 µM

Further lines, the molecule ahead of its results:

SMILES: CCC[C@H](NC(=O)[C@H](CC(C)C)NC(=O)[C@@H](NC(=O)[C@H](CCCCN)NC(=O)[C@H](Cc1ccc2ccccc2c1)NC(=O)[C@H](CCCNC(=N)N)NC(=O)[C@H](CCCCN)NC(=O)[C@H](CC(C)C)NC(=O)[C@H](CCC)NC(=O)CN)[C@@H](C)O)C(N)=O (H-G[Nva]LKR[2Nal]KTL[Nva]-NH2)
HC10 (Erythrocyte): > 500 µM | MIC (Escherichia coli [1]): 100 µM

SMILES: CC[C@H](C)[C@H](NC(=O)[C@H](CCCNC(=N)N)NC(=O)[C@H](CCCCN)NC(=O)[C@H](CC(C)C)NC(=O)[C@H](CCC(C)C)NC(=O)CN)C(=O)N[C@@H](CCCCN)C(=O)N[C@H](C(=O)N[C@@H](CC(C)C)C(=O)N[C@@H](CCC(C)C)C(N)=O)[C@@H](C)O (H-G[hLeu]LKRIKTL[hLeu]-NH2)
HC10 (Erythrocyte): 380 µM | MIC (Escherichia coli [1]): 12.5 µM

SMILES: CCCC(=O)NCC(=O)N[C@@H](CC(C)C)C(=O)N[C@@H](CC(C)C)C(=O)N[C@@H](CCCCN)C(=O)N[C@@H](CCCNC(=N)N)C(=O)N[C@H](C(=O)N[C@@H](CCCCN)C(=O)N[C@H](C(=O)N[C@@H](CC(C)C)C(=O)N[C@@H](CC(C)C)C(=O)NCCCC[C@H](NC(=O)[C@H](CCCCNC(=O)[C@H](CC(C)C)NC(=O)[C@H](CC(C)C)NC(=O)[C@@H](NC(=O)[C@H](CCCCN)NC(=O)[C@@H](NC(=O)[C@H](CCCNC(=N)N)NC(=O)[C@H](CCCCN)NC(=O)[C@H](CC(C)C)NC(=O)[C@H](CC(C)C)NC(=O)CNC(=O)CCC)[C@@H](C)CC)[C@@H](C)O)NC(=O)[C@H](CC(C)C)NC(=O)[C@H](CC(C)C)NC(=O)[C@@H](NC(=O)[C@H](CCCCN)NC(=O)[C@@H](NC(=O)[C@H](CCCNC(=N)N)NC(=O)[C@H](CCCCN)NC(=O)[C@H](CC(C)C)NC(=O)[C@H](CC(C)C)NC(=O)CNC(=O)CCC)[C@@H](C)CC)[C@@H](C)O)C(N)=O)[C@@H](C)O)[C@@H](C)CC (I: Butyryl-GLLKRIKTLLKK-NH2 / II: Butyryl-GLLKRIKTLL / III: Butyryl-GLLKRIKTLL; amide I:11-III:C, I:12-II:C)
MIC (Bacillus subtilis): 4 µM (≈ 15.6 µg/mL) | MIC (Klebsiella pneumoniae): 4 µM (≈ 15.6 µg/mL) | MIC (Escherichia coli [2]): 4 µM (≈ 15.6 µg/mL) | MIC (Staphylococcus aureus): 4 µM (≈ 15.6 µg/mL) | MIC (Pseudomonas aeruginosa): 2 µM (≈ 7.79 µg/mL)

SMILES: CCCCCCCCCC(=O)NCC(=O)N[C@@H](CC(C)C)C(=O)N[C@@H](CC(C)C)C(=O)N[C@@H](CCCCN)C(=O)N[C@@H](CCCNC(=N)N)C(=O)N[C@H](C(=O)N[C@@H](CCCCN)C(=O)N[C@H](C(=O)N[C@@H](CC(C)C)C(=O)N[C@@H](CC(C)C)C(=O)NCCCC[C@H](NC(=O)[C@H](CCCCNC(=O)[C@H](CC(C)C)NC(=O)[C@H](CC(C)C)NC(=O)[C@@H](NC(=O)[C@H](CCCCN)NC(=O)[C@@H](NC(=O)[C@H](CCCNC(=N)N)NC(=O)[C@H](CCCCN)NC(=O)[C@H](CC(C)C)NC(=O)[C@H](CC(C)C)NC(=O)CNC(=O)CCCCCCCCC)[C@@H](C)CC)[C@@H](C)O)NC(=O)[C@H](CC(C)C)NC(=O)[C@H](CC(C)C)NC(=O)[C@@H](NC(=O)[C@H](CCCCN)NC(=O)[C@@H](NC(=O)[C@H](CCCNC(=N)N)NC(=O)[C@H](CCCCN)NC(=O)[C@H](CC(C)C)NC(=O)[C@H](CC(C)C)NC(=O)CNC(=O)CCCCCCCCC)[C@@H](C)CC)[C@@H](C)O)C(N)=O)[C@@H](C)O)[C@@H](C)CC (I: Decanoyl-GLLKRIKTLLKK-NH2 / II: Decanoyl-GLLKRIKTLL / III: Decanoyl-GLLKRIKTLL; amide I:11-III:C, I:12-II:C)
MIC (Bacillus subtilis): 56 µM (≈ 232 µg/mL) | MIC (Klebsiella pneumoniae): 32 µM (≈ 133 µg/mL) | MIC (Escherichia coli [2]): 128 µM (≈ 531 µg/mL) | MIC (Staphylococcus aureus): 128 µM (≈ 531 µg/mL) | MIC (Pseudomonas aeruginosa): 32 µM (≈ 133 µg/mL)

SMILES: CC[C@H](C)[C@H](NC(=O)[C@H](CCCNC(=N)N)NC(=O)[C@H](CCCCN)NC(=O)[C@H](CC(C)C)NC(=O)[C@H](CC(C)C)NC(=O)CN)C(=O)N[C@@H](CCCCN)C(=O)N[C@H](C(=O)N[C@@H](CC(C)C)C(=O)N[C@@H](CC(C)C)C(=O)NCCCC[C@H](NC(=O)[C@H](CCCCNC(=O)[C@H](CC(C)C)NC(=O)[C@H](CC(C)C)NC(=O)[C@@H](NC(=O)[C@H](CCCCN)NC(=O)[C@@H](NC(=O)[C@H](CCCNC(=N)N)NC(=O)[C@H](CCCCN)NC(=O)[C@H](CC(C)C)NC(=O)[C@H](CC(C)C)NC(=O)CN)[C@@H](C)CC)[C@@H](C)O)NC(=O)[C@H](CC(C)C)NC(=O)[C@H](CC(C)C)NC(=O)[C@@H](NC(=O)[C@H](CCCCN)NC(=O)[C@@H](NC(=O)[C@H](CCCNC(=N)N)NC(=O)[C@H](CCCCN)NC(=O)[C@H](CC(C)C)NC(=O)[C@H](CC(C)C)NC(=O)CN)[C@@H](C)CC)[C@@H](C)O)C(N)=O)[C@@H](C)O (I: H-GLLKRIKTLLKK-NH2 / II: H-GLLKRIKTLL / III: H-GLLKRIKTLL; amide I:11-III:C, I:12-II:C)
MIC (Bacillus subtilis): 4 µM (≈ 14.7 µg/mL) | MIC (Klebsiella pneumoniae): 4 µM (≈ 14.7 µg/mL) | MIC (Escherichia coli [2]): 8 µM (≈ 29.5 µg/mL) | MIC (Staphylococcus aureus): 4 µM (≈ 14.7 µg/mL) | MIC (Pseudomonas aeruginosa): 4 µM (≈ 14.7 µg/mL)

SMILES: CCCCCC(=O)NCC(=O)N[C@@H](CC(C)C)C(=O)N[C@@H](CC(C)C)C(=O)N[C@@H](CCCCN)C(=O)N[C@@H](CCCNC(=N)N)C(=O)N[C@H](C(=O)N[C@@H](CCCCN)C(=O)N[C@H](C(=O)N[C@@H](CC(C)C)C(=O)N[C@@H](CC(C)C)C(=O)NCCCC[C@H](NC(=O)[C@H](CCCCNC(=O)[C@H](CC(C)C)NC(=O)[C@H](CC(C)C)NC(=O)[C@@H](NC(=O)[C@H](CCCCN)NC(=O)[C@@H](NC(=O)[C@H](CCCNC(=N)N)NC(=O)[C@H](CCCCN)NC(=O)[C@H](CC(C)C)NC(=O)[C@H](CC(C)C)NC(=O)CNC(=O)CCCCC)[C@@H](C)CC)[C@@H](C)O)NC(=O)[C@H](CC(C)C)NC(=O)[C@H](CC(C)C)NC(=O)[C@@H](NC(=O)[C@H](CCCCN)NC(=O)[C@@H](NC(=O)[C@H](CCCNC(=N)N)NC(=O)[C@H](CCCCN)NC(=O)[C@H](CC(C)C)NC(=O)[C@H](CC(C)C)NC(=O)CNC(=O)CCCCC)[C@@H](C)CC)[C@@H](C)O)C(N)=O)[C@@H](C)O)[C@@H](C)CC (I: Hexanoyl-GLLKRIKTLLKK-NH2 / II: Hexanoyl-GLLKRIKTLL / III: Hexanoyl-GLLKRIKTLL; amide I:11-III:C, I:12-II:C)
MIC (Bacillus subtilis): 8 µM (≈ 31.8 µg/mL) | MIC (Klebsiella pneumoniae): 32 µM (≈ 127 µg/mL) | MIC (Escherichia coli [2]): 16 µM (≈ 63.6 µg/mL) | MIC (Staphylococcus aureus): 16 µM (≈ 63.6 µg/mL) | MIC (Pseudomonas aeruginosa): 8 µM (≈ 31.8 µg/mL)
